In US9260425B2 (Genetech, Inc., priority 2011, dated 2016):
Values belong to the compound of their own block, whether it stands above or below them.

Biological target: Pim-1 (Homo sapiens (Human), UniProt P11309)
Assay: Pim kinase binding activity assay (Example 901), PIM-1 enzyme, Caliper microfluidic peptide phosphorylation
Assay type: biochemical
Conditions: 20 pM PIM-1, 10 μM ATP, 1 μM FAM-peptide, 90 minutes at room temperature
Procedure: Pim Kinase Binding Activity
A fluorescent-labeled Pim-specific peptide substrate, was custom synthesized by American Peptide Company (Sunnyvale, Calif.). Reaction Buffer contained 10 mM HEPES, pH 7.2, 10 mM MgCl2, 0.01% Tween 20, 2 mM DTT. Termination Buffer contained 190 mM HEPES, pH 7.2, 0.015% Brij-35, 0.2% Coating Reagent 3 (Caliper Life Sciences, Hopkinton, Mass.), 20 mM EDTA. Separation Buffer contained 100 mM HEPES, pH 7.2, 0.015% Brij-35, 0.1% Coating Reagent 3, 1:200 Coating Reagent 8 (Caliper Life Sciences, Hopkinton, Mass.), 10 mM EDTA and 5% DMSO.
PIM reactions were carried out in a final volume of 10 μL per well in a 384-well plate. A standard enzymatic reaction, initiated by the addition of 5 μL 2×ATP and test compound to 5 μL of 2× enzyme and FAM-peptide, contained 20 pM PIM-1, 50 pM PIM-2, or 55 pM PIM-3, 1 μM FAM-peptide, and 10 μM ATP, in Reaction Buffer. After 90 minutes of incubation at room temperature, the phosphorylation reaction was stopped by the addition of 10 μL Termination Buffer. The product and substrate in each independent reaction were separated on a 12-sipper microfluidic chip (Caliper Life Sciences, Hopkinton, Mass.) run on a Caliper LC3000® (Caliper Life Sciences, Hopkinton, Mass.). The separation of product and substrate was optimized by choosing voltages and pressure using Caliper's Optimizer software (Hopkinton, Mass.). […] The product and substrate fluorophore were excited at 488 nm and detected at 530 nm. Substrate conversion was calculated from the electropherogram using HTS Well Analyzer software (Caliper Life Sciences, Hopkinton, Mass.). Ki values for the test compound were calculated.

Sequence of Pim-1 (P11309 whole entry): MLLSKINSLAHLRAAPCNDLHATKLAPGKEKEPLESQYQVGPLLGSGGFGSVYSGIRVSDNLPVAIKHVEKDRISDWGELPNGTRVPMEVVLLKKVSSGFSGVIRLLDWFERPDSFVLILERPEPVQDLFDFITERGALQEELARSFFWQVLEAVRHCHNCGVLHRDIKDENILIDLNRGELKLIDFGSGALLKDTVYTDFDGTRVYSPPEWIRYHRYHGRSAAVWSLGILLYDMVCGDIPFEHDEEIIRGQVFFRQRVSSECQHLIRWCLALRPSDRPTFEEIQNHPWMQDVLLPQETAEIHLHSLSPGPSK

Structure (SMILES): N[C@H]1CCCN(c2cccc(-c3n[nH]c4cnc(N5CCNC(=O)C5)cc34)n2)C1 [Example 345, (S)-4-(3-(6-(3-aminopiperidin-1-yl)pyridin-2-yl)-1H-pyrazolo[3,4-c]pyridin-5-yl)piperazin-2-one]
Ki: 13.7 nM

Structure (SMILES): CCn1cc(-c2cc3c(-c4ccccn4)n[nH]c3cn2)cn1 [Example 508, 5-(1-ethyl-1H-pyrazol-4-yl)-3-(pyridin-2-yl)-1H-pyrazolo[3,4-c]pyridine]
Ki: 10.6 nM

Structure (SMILES): O=C1N(CC2CCNC2)CCN1c1n[nH]c2cnc(-c3cccnc3)cc12 (centres unmarked) [Example 303, 1-(5-(pyridin-3-yl)-1H-pyrazolo[3,4-c]pyridin-3-yl)-3-(pyrrolidin-3-ylmethyl)imidazolidin-2-one]
Ki: 4.11 nM

Structure (SMILES): O=C1CN(c2cc3c(-c4cccc(N5CCNCC5)n4)n[nH]c3cn2)CCN1 [Example 335, 4-(3-(6-(piperazin-1-yl)pyridin-2-yl)-1H-pyrazolo[3,4-c]pyridin-5-yl)piperazin-2-one]
Ki: 12.6 nM

Structure (SMILES): Cc1n[nH]c2cnc(-c3cnn(C)c3)cc12 [Example 127, 3-methyl-5-(1-methyl-1H-pyrazol-4-yl)-1H-pyrazolo[3,4-c]pyridine]
Ki: 261 nM

Structure (SMILES): CN1CCN(c2cc3c(-c4ccccc4)n[nH]c3cn2)CC1=O [Example 330, 1-methyl-4-(3-phenyl-1H-pyrazolo[3,4-c]pyridin-5-yl)piperazin-2-one]
Ki: 660 nM

Structure (SMILES): Cc1n[nH]c2cnc(-c3cncc(N4CCC[C@H](N)C4)n3)cc12 [Example 120, (S)-1-(6-(3-methyl-1H-pyrazolo[3,4-c]pyridin-5-yl)pyrazin-2-yl)piperidin-3-amine]
Ki: 4.78 nM

Structure (SMILES): Cc1n[nH]c2cnc(-c3cnn(C4COC4)c3)cc12 [Example 114, 3-methyl-5-(1-(oxetan-3-yl)-1H-pyrazol-4-yl)-1H-pyrazolo[3,4-c]pyridine]
Ki: 844 nM

Structure (SMILES): NC1CCN(c2ccncc2-c2cc3c(-c4ccccc4F)n[nH]c3cn2)CC1 [Example 128, 1-(3-(3-(2-fluorophenyl)-1H-pyrazolo[3,4-c]pyridin-5-yl)pyridin-4-yl)piperidin-4-amine]
Ki: 1500 nM

Structure (SMILES): NC1CCCN(c2ccncc2-c2cc3c(-c4ccccc4F)n[nH]c3cn2)CC1 (centres unmarked) [Example 139, 1-(3-(3-(2-fluorophenyl)-1H-pyrazolo[3,4-c]pyridin-5-yl)pyridin-4-yl)azepan-4-amine]
Ki: 255 nM

Structure (SMILES): Cc1n[nH]c2cnc(-c3cncc(N4CCC(N)CC4)n3)cc12 [Example 110, 1-(6-(3-methyl-1H-pyrazolo[3,4-c]pyridin-5-yl)pyrazin-2-yl)piperidin-4-amine]
Ki: 5.8 nM

Structure (SMILES): c1ccc(-c2n[nH]c3cnc(-c4cncs4)cc23)nc1 [Example 338, 5-(3-(pyridin-2-yl)-1H-pyrazolo[3,4-c]pyridin-5-yl)thiazole]
Ki: 24.5 nM

Structure (SMILES): C=C(C)c1ccnc(-c2n[nH]c3cnc(-c4cnn(CC)c4)cc23)c1 [Example 500, 5-(1-ethyl-1H-pyrazol-4-yl)-3-(4-(prop-1-en-2-yl)pyridin-2-yl)-1H-pyrazolo[3,4-c]pyridine]
Ki: 54.1 nM

Structure (SMILES): O=C(NC1CNC1)c1cccc(-c2n[nH]c3cnc(-c4cccnc4)cc23)n1 [Example 329, N-(azetidin-3-yl)-6-(5-(pyridin-3-yl)-1H-pyrazolo[3,4-c]pyridin-3-yl)picolinamide]
Ki: 16.5 nM

Structure (SMILES): NC(=O)[C@@H]1CCCN1c1ccc(-c2n[nH]c3cnc(-c4cccnc4)cc23)nc1 [Example 344, (S)-1-(6-(5-(pyridin-3-yl)-1H-pyrazolo[3,4-c]pyridin-3-yl)pyridin-3-yl)pyrrolidine-2-carboxamide]
Ki: 3.9 nM

Stronger by Ki, values ahead:

Ki: 0.073 nM
Structure (SMILES): Cn1cc(-c2cc3c(-c4cccc(N5CCC[C@@](C)(O)C5)n4)n[nH]c3cn2)cn1 [Example 424, (R)-3-methyl-1-(6-(5-(1-methyl-1H-pyrazol-4-yl)-1H-pyrazolo[3,4-c]pyridin-3-yl)pyridin-2-yl)piperidin-3-ol]

Ki: 0.019 nM
Structure (SMILES): Cc1cncc(-c2cc3c(-c4cccc(N5CCCNCC5)n4)n[nH]c3cn2)n1 [Example 522, 3-(6-(1,4-diazepan-1-yl)pyridin-2-yl)-5-(6-methylpyrazin-2-yl)-1H-pyrazolo[3,4-c]pyridine]

Ki: 0.028 nM
Structure (SMILES): CCn1cc(-c2cc3c(-c4ccc(Br)c(N5C[C@H](N)C[C@@H](F)C5)n4)n[nH]c3cn2)cn1 [Example 455, (3R,5R)-1-(3-bromo-6-(5-(1-ethyl-1H-pyrazoI-4-yl)-1H-pyrazolo[3,4-c]pyridin-3-yl)pyridin-2-yl)-5-fluoropiperidin-3-amine]

Ki: 0.063 nM
Structure (SMILES): CCn1cc(-c2cc3c(-c4cccc(N5CC[C@H](F)[C@H](N)C5)n4)n[nH]c3cn2)cn1 (relative stereo) [Example 465, cis-1-(6-(5-(1-ethyl-1H-pyrazol-4-yl)-1H-pyrazolo[3,4-c]pyridin-3-yl)pyridin-2-yl)-4-fluoropiperidin-3-amine]

Ki: 0.571 nM
Structure (SMILES): Cn1cc(-c2cc3c(-c4ccnc(C5CCNCC5)n4)n[nH]c3cn2)cn1 [Example 439, 5-(1-methyl-1H-pyrazol-4-yl)-3-(2-(piperidin-4-yl)pyrimidin-4-yl)-1H-pyrazolo[3,4-c]pyridine]

Ki: 0.015 nM
Structure (SMILES): c1cncc(-c2cc3c(-c4cccc(N5CCCNCC5)n4)n[nH]c3cn2)c1 [Example 187, 3-(6-(1,4-diazepan-1-yl)pyridin-2-yl)-5-(pyridin-3-yl)-1H-pyrazolo[3,4-c]pyridine]

Ki: 0.342 nM
Structure (SMILES): Fc1ccccc1-c1n[nH]c2cnc(-c3cnccc3O[C@H]3CCCNC3)cc12 [Example 148, (S)-3-(2-fluorophenyl)-5-(4-(piperidin-3-yloxy)pyridin-3-yl)-1H-pyrazolo[3,4-c]pyridin]

Ki: 0.051 nM
Structure (SMILES): Cn1ccc(-c2n[nH]c3cnc(-c4cncc(N5CCC(N)CC5)n4)cc23)n1 [Example 233, 1-(6-(3-(1-methyl-1H-pyrazol-3-yl)-1H-pyrazolo[3,4-c]pyridin-5-yl)pyrazin-2-yl)piperidin-4-amine]

Ki: 0.387 nM
Structure (SMILES): Cn1cc(-c2cc3c(-c4cccc(N5CCC[C@@H](N)C5)c4)n[nH]c3cn2)cn1 [Example 222, (R)-1-(3-(5-(1-methyl-1H-pyrazol-4-yl)-1H-pyrazolo[3,4-c]pyridin-3-yl)phenyl)piperidin-3-amine]

Ki: 0.3 nM
Structure (SMILES): N[C@@H]1CCC[C@H](Nc2cccc(-c3n[nH]c4cnc(-c5cccnc5)cc34)n2)C1 [Example 239, (1S,3R)—N1-(6-(5-(pyridin-3-yl)-1H-pyrazolo[3,4-c]pyridin-3-yl)pyridin-2-yl)cyclohexane-1,3-diamine]

Ki: 0.284 nM
Structure (SMILES): Fc1cncc(-c2cc3c(-c4cccc(N5CCNCC5)n4)n[nH]c3cn2)c1 [Example 208, 5-(5-fluoropyridin-3-yl)-3-(6-(piperazin-1-yl)pyridin-2-yl)-1H-pyrazolo[3,4-c]pyridine]

Ki: 0.502 nM
Structure (SMILES): Cn1cc(-c2cc3c(-c4cccc(-c5cnn(C)c5)n4)n[nH]c3cn2)cn1 [Example 184, 5-(1-methyl-1H-pyrazol-4-yl)-3-(6-(1-methyl-1H-pyrazol-4-yl)pyridin-2-yl)-1H-pyrazolo[3,4-c]pyridine]

Ki: 0.404 nM
Structure (SMILES): CCn1cc(-c2cc3c(-c4cccc(N5C[C@H]6CNC[C@H]6C5)n4)n[nH]c3cn2)cn1 [Example 395]

Ki: 0.028 nM
Structure (SMILES): C=C(C)c1ccc(-c2n[nH]c3cnc(-c4cnn(C)c4)cc23)nc1N1CCC[C@H](N)C1 [Example 414, (S)-1-(6-(5-(1-methyl-1H-pyrazol-4-yl)-1H-pyrazolo[3,4-c]pyridin-3-yl)-3-(prop-1-en-2-yl)pyridin-2-yl)piperidin-3-amine]

Ki: 0.404 nM
Structure (SMILES): N[C@@H]1CCCN(c2ccc(-c3n[nH]c4cnc(-c5cccnc5)cc34)cn2)C1 [Example 191, (R)-1-(5-(5-(pyridin-3-yl)-1H-pyrazolo[3,4-c]pyridin-3-yl)pyridin-2-yl)piperidin-3-amine]

Ki: 0.07 nM
Structure (SMILES): c1cncc(-c2cc3c(-c4cccc(N5CCC(C6CCNCC6)CC5)n4)n[nH]c3cn2)c1 [Example 273, 3-(6-(4,4′-bipiperidin-1-yl)pyridin-2-yl)-5-(pyridin-3-yl)-1H-pyrazolo[3,4-c]pyridine]

Ki: 0.311 nM
Structure (SMILES): CCn1cc(-c2cc3c(-c4cccc(N5CCN(C6COC6)CC5)n4)n[nH]c3cn2)cn1 [Example 480, 5-(1-ethyl-1H-pyrazol-4-yl)-3-(6-(4-(oxetan-3-yl)piperazin-1-yl)pyridin-2-yl)-1H-pyrazolo[3,4-c]pyridine]

Ki: 1.57 nM
Structure (SMILES): N[C@H]1CCN(c2ccc(-c3n[nH]c4cnc(-c5cccnc5)cc34)nc2)C1=O [Example 334, (S)-3-amino-1-(6-(5-(pyridin-3-yl)-1H-pyrazolo[3,4-c]pyridin-3-yl)pyridin-3-yl)pyrrolidin-2-one]

Ki: 1.28 nM
Structure (SMILES): Fc1ccccc1-c1n[nH]c2cnc(-c3cnccc3OC[C@H]3CCNC3)cc12 [Example 211, (S)-3-(2-fluorophenyl)-5-(4-(pyrrolidin-3-ylmethoxy)pyridin-3-yl)-1H-pyrazolo[3,4-c]pyridine]

Ki: 0.025 nM
Structure (SMILES): N[C@@H]1CCC[C@@H](Nc2cccc(-c3n[nH]c4cnc(-c5cccnc5)cc34)n2)C1 [Example 352, (1R,3R)-N1-(6-(5-(pyridin-3-yl)-1H-pyrazolo[3,4-c]pyridin-3-yl)pyridin-2-yl)cyclohexane-1,3-diamine]
